Results as given in PubChem BioAssay AID344 (DTP/NCI, 2004).
“And” between values parts separate entries of the source, which are not always exact repeats. Identical values can stand only once. Inconclusive results and toxic doses are left out.

Tested on: mice, LPC-1 plasma cell tumor ip, median survival T/C
Assay: NCI In Vivo Anticancer Drug Screen. Data for tumor model Lieberman Plasma Cell No. 1 (LPC-1) (intraperitoneal) in unknown mice
Settings: endpoint: median survival time, higher = longer survival
Method: The antitumor activity of compounds was measured in mice bearing transplantable tumors. Survival or tumor size were measured and the results are expressed as the measurement made in the treated group (T) divided by the measurement made in the vehicle treated control group (C). The tumor model used in this assay is Lieberman Plasma Cell No. 1 (LPC-1) (intraperitoneal) in unknown mice

SMILES: N=[N+]=CC(=O)OCC(N)C(=O)O (stereo not drawn)
- T/C (dose: 1.8 mg/kg/injection, schedule: Q01DX028 (sc), vehicle: water): 89 % of control
- T/C (dose: 3.0 mg/kg/injection, schedule: Q01DX028 (sc), vehicle: water): 102 % of control
- T/C (dose: 14.0 mg/kg/injection, schedule: Q01DX028 (sc), vehicle: water): 97 % of control

SMILES: O=C(O)CCCc1ccc(N(CCCl)CCCl)cc1
- T/C (dose: 1.0 mg/kg/injection, schedule: Q01DX007 (sc), vehicle: saline): 93 % of control
- T/C (dose: 2.0 mg/kg/injection, schedule: Q01DX007 (sc), vehicle: saline): 109 % of control
- T/C (dose: 3.0 mg/kg/injection, schedule: Q01DX028 (sc), vehicle: methylcellulose (MC)): 95 % of control
- T/C (dose: 4.0 mg/kg/injection, schedule: Q01DX007 (sc), vehicle: saline): 118 % of control
- T/C (dose: 5.0 mg/kg/injection, schedule: Q01DX028 (sc), vehicle: methylcellulose (MC)): 97 % of control
- T/C (dose: 8.4 mg/kg/injection, schedule: Q01DX028 (sc), vehicle: methylcellulose (MC)): 100 % of control
- T/C (dose: 14.0 mg/kg/injection, schedule: Q01DX028 (sc), vehicle: methylcellulose (MC)): 113 % of control
- T/C (dose: 16.0 mg/kg/injection, schedule: Q01DX007 (sc), vehicle: saline): 112 % of control

SMILES: CS(=O)(=O)OCCN(CCOS(C)(=O)=O)c1ccc(N=O)cc1
- T/C (dose: 0.25 mg/kg/injection, schedule: Q01DX028 (sc), vehicle: saline): 105 % of control
- T/C (dose: 0.5 mg/kg/injection, schedule: Q01DX028 (sc), vehicle: saline): 107 % of control
- T/C (dose: 1.0 mg/kg/injection, schedule: Q01DX028 (sc), vehicle: saline): 120 % of control
- T/C (dose: 1.8 mg/kg/injection, schedule: Q01DX028 (sc), vehicle: saline): 157 % of control
- T/C (dose: 2.0 mg/kg/injection, schedule: Q01DX028 (sc), vehicle: saline): 102 % of control and 115 % of control
- T/C (dose: 2.7 mg/kg/injection, schedule: Q01DX028 (sc), vehicle: saline): 121 % of control
- T/C (dose: 4.0 mg/kg/injection, schedule: Q01DX028 (sc), vehicle: saline): 94 % of control and 100 % of control
- T/C (dose: 6.0 mg/kg/injection, schedule: Q01DX028 (sc), vehicle: saline): 94 % of control

SMILES: N=C(N)SCc1c2ccccc2c(CSC(=N)N)c2ccccc12
- T/C (dose: 2.5 mg/kg/injection, schedule: Q01DX028 (sc), vehicle: carboxymethylcellulose (CMC)): 97 % of control
- T/C (dose: 5.0 mg/kg/injection, schedule: Q01DX028 (sc), vehicle: carboxymethylcellulose (CMC)): 112 % of control
- T/C (dose: 10.0 mg/kg/injection, schedule: Q01DX028 (sc), vehicle: carboxymethylcellulose (CMC)): 95 % of control
- T/C (dose: 20.0 mg/kg/injection, schedule: Q01DX028 (sc), vehicle: carboxymethylcellulose (CMC)): 117 % of control
- T/C (dose: 40.0 mg/kg/injection, schedule: Q01DX028 (sc), vehicle: carboxymethylcellulose (CMC)): 115 % of control

SMILES: CC(=O)O[C@]1(C(C)=O)CC[C@H]2[C@@H]3C[C@H](C)C4=CC(=O)C=C[C@]4(C)[C@@]3(F)[C@@H](O)C[C@@]21C
- T/C (dose: 25.0 mg/kg/injection, schedule: Q01DX028 (sc), vehicle: steriod suspending solution): 100 % of control
- T/C (dose: 50.0 mg/kg/injection, schedule: Q01DX028 (sc), vehicle: steriod suspending solution): 97 % of control
- T/C (dose: 75.0 mg/kg/injection, schedule: Q01DX028 (sc), vehicle: steriod suspending solution): 91 % of control
- T/C (dose: 100.0 mg/kg/injection, schedule: Q01DX028 (sc), vehicle: steriod suspending solution): 97 % of control
